# Assay results published in ChEMBL document CHEMBL5728747, “Benzimidazoles and indoles as taro inhibitors” (2021).
# Values joined by “and” are separate entries in the source; they are usually repeats but may differ in a detail not shown here. Equal entries are not always repeated.
# Assay: TarO Biochemical Enzymatic Assay: The TarO biochemical enzymatic assay is a liquid chromatography-mass spectroscopy (LC-MS) based end point assay that measures C55-P-P-GlcNAc (LIPID III) production. The TarO biochemical enzymatic assay was performed in a 384-well microtiter plate (Labcyte) with a reaction volume of 20 μl. The reaction mix contained 0.1 μgs/μl of TarO membrane preparation derived from MRSA COL (lysostaphin/lysozyme treated, centrifuged at 40K rpm, and re-suspended in 50 mM Tris pH 7.5, 10 mM MgCl2), 1500 μM UDP-GlcNAc, ×75 μM C55-P substrates in 83 mM Tris pH 8.0, 6.7 mM MgCl2, 6 mM CHAPS, and 8.3% DMSO buffer. The enzyme reactions were quenched by extraction in 40 μl of 1-pentanol containing 0.04 μM 15C C55-PP-GlcNAc, which was used as an internal standard. A 10 μl volume of the quenched reaction mixture (pH≈3) from each well was injected onto a reversed-phase column (C4, 5 μm, 2.1×50 mm, Thermo Scientific Biobacis-4) and eluted using a NH4Ac/H2O/MeOH gradient (solvent A: 10 mM NH4Ac in water, pH 5.6; solvent B: NH4Ac (1 M)-Isopropanol (1:90, v/v, pH 5.6). The HPLC conditions were as follows: 15% solvent B for 15 seconds followed by a gradient to 90% solvent B in 90 seconds; then solvent B was kept at 95% for 10 seconds followed by a gradient to 8% solvent B in 0.1 minute. The column was then equilibrated at 15% B for 1 minute before the next injection. The flow rate was kept constant at 600 μl/minute. Mass spectrometric detection was carried out in the negative-ion mode using selected reaction monitoring (SRM). Typical mass spectrometric conditions were as follows: heated capillary temperature, 210° C.; spray voltage, 2500 V; desolvation gas (N2), 40 l/h; auxiliary gas (N2), 35 l/h. Selected ion current (SIC) chromatograms of C55-PP-GlcNAc and internal standard 15C C55-PP-GlcNAc were plotted and integrated using LCQuan incorporated in Xcalibur software (ThermoFinnigan). The linearity of C55-PP-GlcNAc concentration versus mass spectrometric signal (AC55-PP-GlcNAc/A15C-C55-PP-GlcNAc) was determined with purified C55-PP-GlcNAc. The IC50 values were calculated using the nonlinear regression analysis (sigmoidal dose response fit allowing for a variable slope) of percent inhibition data with minimum and maximum values set to 0 and 100 percent.
row,SMILES,IC50
1,CCN(C(=O)CCn1c(-c2ccc(C(=O)OC)cc2)nc2ccccc21)C1CCCCC1,130 nM
2,CCN(C(=O)CCn1c2cc(CO)ccc2nc1[C@H]1CC[C@H](CC)CC1)C1CCCCC1,120 nM
3,CCN(C(=O)CCn1c2ccc(F)cc2nc1[C@H]1CC[C@H](CC)CC1)C1CCCCC1,40 nM
4,CCN(C(=O)CCn1c(C2CCCN(C(=O)OC(C)(C)C)C2)nc2cc(F)ccc21)C1CCCCC1 (centres undefined),60 nM and 120 nM
5,CCN(C(=O)CCn1c2cccc(F)c2nc1[C@H]1CC[C@H](CC)CC1)C1CCCCC1,30 nM
6,CCN(C(=O)CCn1c(N2CCC(C)CC2)nc2ccccc21)C1CCCCC1,210 nM
7,CCN(C(=O)CCn1c2ccc(Br)cc2nc1[C@H]1CC[C@H](CC)CC1)C1CCCCC1,10 nM
8,CCN(C(=O)CCn1c2c(F)cccc2nc1[C@H]1CC[C@H](CC)CC1)C1CCCCC1,40 nM
9,CCN(C(=O)CCn1c2cc(-c3cnn(C)c3)ccc2nc1[C@H]1CC[C@H](CC)CC1)C1CCCCC1,50 nM
10,CCN(C(=O)CCn1c2cc(Br)ccc2nc1[C@H]1CC[C@H](CC)CC1)C1CCCCC1,30 nM
11,CCN(C(=O)CCn1c(-c2ccc(OCC(F)(F)F)cc2)nc2ccccc21)C1CCCCC1,40 nM
12,CCN(C(=O)CCn1c(C2CCCCC2)nc2ccccc21)C1CCCCC1,70 nM
13,CCN(C(=O)CCn1c2cc(F)ccc2nc1[C@H]1CC[C@H](CC)CC1)C1CCCCC1,20 nM
14,CCOC(=O)N1CCCC(c2nc3cc(F)ccc3n2CCC(=O)N(CC)C2CCCCC2)C1 (centres undefined),110 nM and 290 nM
15,CN(C(=O)CCn1c(C2CCCCC2)nc2ccccc21)C1CCCCC1,280 nM
16,CCN(C(=O)CCn1c(N2CCC(C(C)(C)C)CC2)nc2ccccc21)C1CCCCC1,10 nM
17,CCN(C(=O)CCn1c(-c2ccc(-n3ccnn3)cc2)nc2ccccc21)C1CCCCC1,3770 nM
18,CC1(C)[C@@H]2CC[C@@]1(C)[C@H](NC(=O)CCn1c(C3CCCCC3)nc3ccccc31)C2,200 nM
19,CCN(C(=O)CCn1c2cccc(C[C@H]3CCOC3)c2nc1[C@H]1CC[C@H](CC)CC1)C1CCCCC1,520 nM
20,CCN(C(=O)CCn1c(N2CCC(F)(F)CC2)nc2ccccc21)C1CCCCC1,220 nM

row,SMILES,IC50
1,CCN(C(=O)CCn1c2ccc(OC)cc2nc1[C@H]1CC[C@H](CC)CC1)C1CCCCC1,150 nM
2,CCN(C(=O)CCn1c2ncccc2nc1[C@H]1CC[C@H](CC)CC1)C1CCCCC1,300 nM
3,CCN(C(=O)CCn1c2cccc(N3CCOCC3)c2nc1[C@H]1CC[C@H](CC)CC1)C1CCCCC1,3440 nM
4,CCc1nsc(N2CCCC(c3nc4ccccc4n3CCC(=O)N(CC)C3CCCCC3)C2)n1 (centres undefined),80 nM
5,CCCOC(=O)N1CCCC(c2nc3ccccc3n2CCC(=O)N(CC)C2CCCCC2)C1 (centres undefined),150 nM
6,CCN(C(=O)CCn1c2cc(C[C@H]3CCOC3)ccc2nc1[C@H]1CC[C@H](CC)CC1)C1CCCCC1,380 nM
7,CCN(C(=O)CCn1c2ccncc2nc1[C@H]1CC[C@H](CC)CC1)C1CCCCC1,150 nM
8,CCN(C(=O)CCn1c2cc(CN)ccc2nc1[C@H]1CC[C@H](CC)CC1)C1CCCCC1,7320 nM
9,CC(C)(C)OC(=O)NCC1CCC(c2nc3ccccc3n2CCC(=O)NC2C[C@H]3CC[C@]2(C)C3(C)C)CC1 (some centres undefined),1350 nM
10,CCOc1ccc(-c2nc3ccccc3n2CCC(=O)N(CC)C2CCCCC2)cn1,240 nM
11,CCN(C(=O)CCn1c(C2CCCN(C(=O)OC(C)C)C2)nc2ccccc21)C1CCCCC1 (centres undefined),260 nM
12,CCCCOC(=O)N1CCCC(c2nc3ccccc3n2CCC(=O)N(CC)C2CCCCC2)C1 (centres undefined),70 nM
13,CCOC(=O)N1CCCC(c2nc3ccc(F)cc3n2CCC(=O)N(CC)C2CCCCC2)C1 (centres undefined),1090 nM
14,CCN(C(=O)CCn1c2cc(C#N)ccc2nc1[C@H]1CC[C@H](CC)CC1)C1CCCCC1,790 nM
15,CCN(C(=O)CCn1c(CN2CCC(C(C)(C)C)CC2)nc2ccccc21)C1CCCCC1,100 nM
16,CCN(C(=O)CCn1c(C2CCC(C)N(c3cccc(OC)n3)C2)nc2ccccc21)C1CCCCC1 (centres undefined),20 nM
17,CC1CCN(C(=O)CCn2c(C3CCCCC3)nc3ccccc32)CC1,2340 nM
18,CCC1CCN(Cc2nc3cc(C)ccc3n2CCC(=O)N(CC)C2CCCCC2)CC1,1050 nM
19,CCC1CCN(Cc2nc3ccccc3n2CCC(=O)N(CC)C2CCCCC2)CC1,210 nM
20,CCN(C(=O)CCn1c(C2CCCN(c3nccc(OC)n3)C2)nc2ccccc21)C1CCCCC1 (centres undefined),80 nM

row,SMILES,IC50
1,CCN(C(=O)CCn1c2ccc(C#N)cc2nc1[C@H]1CC[C@H](CC)CC1)C1CCCCC1,420 nM
2,CCN(C(=O)CCn1c2cnccc2nc1[C@H]1CC[C@H](CC)CC1)C1CCCCC1,840 nM
3,CCN(C(=O)CCn1c(C2CCC(C)N(c3nccc(OC)n3)C2)nc2ccccc21)C1CCCCC1 (centres undefined),140 nM
4,CCN(C(=O)CCn1c2cc(CN3CC(F)(F)C3)ccc2nc1[C@H]1CC[C@H](CC)CC1)C1CCCCC1,1770 nM
5,CCN(C(=O)CCn1c2ccc(C(F)(F)F)cc2nc1[C@H]1CC[C@H](CC)CC1)C1CCCCC1,10 nM
6,CCN(C(=O)CCn1c2cccc(C(F)F)c2nc1[C@H]1CC[C@H](C)CC1)C1CCCCC1,360 nM
7,CCN(C(=O)CCn1c(C2CCCN(c3cccc(OC)n3)C2)nc2ccccc21)C1CCCCC1 (centres undefined),10 nM
8,CCN(C(=O)CCn1c(C2CCN(C(=O)OC(C)(C)C)C2)nc2cc(F)ccc21)C1CCCCC1 (centres undefined),400 nM
9,CCN(C(=O)CCn1c(N2CCC(C(F)F)CC2)nc2ccccc21)C1CCCCC1,170 nM
10,CCN(C(=O)CCn1c2cc(CN3CCN(CC(F)(F)F)CC3)ccc2nc1[C@H]1CC[C@H](CC)CC1)C1CCCCC1,1480 nM
11,CCN(C(=O)CCn1c2cccnc2nc1[C@H]1CC[C@H](CC)CC1)C1CCCCC1,660 nM
12,CCN(C(=O)CCn1c2ccc(CO)cc2nc1[C@H]1CC[C@H](CC)CC1)C1CCCCC1,770 nM
13,CCCOC(=O)N1CC(c2nc3ccccc3n2CCC(=O)N(CC)C2CCCCC2)CCC1C (centres undefined),110 nM
14,CCN(C(=O)CCn1c(C2CCCN(c3ccccn3)C2)nc2ccccc21)C1CCCCC1 (centres undefined),90 nM
15,CCN(C(=O)CCn1c(N2CCC[C@H](NC(=O)OC(C)(C)C)C2)nc2ccccc21)C1CCCCC1,7990 nM
16,CC(C)(C)OC(=O)N1CCC(c2nc3ccccc3n2CCC(=O)NC2C[C@H]3CC[C@]2(C)C3(C)C)C1 (some centres undefined),3400 nM
17,CCN(C(=O)CCn1c2ccc(C3CC3)cc2nc1[C@H]1CC[C@H](CC)CC1)C1CCCCC1,130 nM
18,CCN(C(=O)CCn1c(C2CCCN(c3nccc(C)n3)C2)nc2ccccc21)C1CCCCC1 (centres undefined),230 nM
19,CC1(C)[C@@H]2CC[C@@]1(C)[C@H](NC(=O)CCn1c3ccccc3nc1[C@H]1CC[C@@H](C(C)(C)C)CC1)C2,60 nM
